This note sets out measurements from BindingDB's records for doi:10.1021/jm010282t (Tohoku Pharmaceutical University, 2001).

For the assay, the target named is T1, Aromatase (Homo sapiens, UniProt P11511).
T1 sequence (P11511 whole entry): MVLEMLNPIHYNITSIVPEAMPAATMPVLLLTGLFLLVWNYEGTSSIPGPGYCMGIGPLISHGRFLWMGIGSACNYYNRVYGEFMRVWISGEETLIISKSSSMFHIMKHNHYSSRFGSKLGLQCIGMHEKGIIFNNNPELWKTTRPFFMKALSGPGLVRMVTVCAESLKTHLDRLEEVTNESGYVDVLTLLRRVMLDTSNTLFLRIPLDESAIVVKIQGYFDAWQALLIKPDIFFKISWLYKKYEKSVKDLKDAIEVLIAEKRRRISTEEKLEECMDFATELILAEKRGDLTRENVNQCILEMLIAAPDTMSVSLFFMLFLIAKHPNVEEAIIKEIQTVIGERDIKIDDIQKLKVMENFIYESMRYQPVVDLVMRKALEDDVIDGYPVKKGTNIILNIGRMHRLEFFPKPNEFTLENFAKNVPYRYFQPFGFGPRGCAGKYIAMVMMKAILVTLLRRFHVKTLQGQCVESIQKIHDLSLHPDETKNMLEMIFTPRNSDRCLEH
The assay is described as follows: Aromatase Assay. Particulars: pH 7.5; 37 °C.
Method: The enzyme activity was assayed by measuring the 3H-labeled H2O formed from [1beta-3H] Androstenedione during aromatization. After incubation, the reaction was terminated by CHCl3 extraction and centrifugation. Aliquots of the water phase were assayed for the presence of 3H2O by counting using a liquid scintillation spectrometer.
`CO[C@H]1CCC[C@@]2(CO)C1=CCC1C2CC[C@]2(C)C(=O)CCC12` (stereo partly drawn) [4beta-Methoxy-19-hydroxyandrost-5-en-17-one]: the IC50 amounted to 150000 nM.

In the case of `C[C@]12CCC3C(C[C@@H](O)C4=CCCC[C@@]43CO)C1CCC2=O` (stereo partly drawn) [6beta,19-dihydroxyandrost-4-en-17-one], half-maximal inhibition (IC50) required 940 nM and the Ki turned out to be 110 nM. The matching figures for `C[C@]12CCCCC1=CCC1C2CC[C@]2(C)C(=O)CCC12` (stereo partly drawn) [(2R,15S)-2,15-dimethyltetracyclo[8.7.0.0^{2,7}.0^{11,15}]heptadec-7-en-14-one]: 660 nM and 120 nM.

Molecule `CC(=O)O[C@@H]1CCC[C@@]2(CO)C1=CCC1C2CC[C@]2(C)C(=O)CCC12` (stereo partly drawn) [(2S,6R,15S)-2-(hydroxymethyl)-15-methyl-14-oxotetracyclo[8.7.0.0^{2,7}.0^{11,15}]heptadec-7-en-6-yl acetate] registered an IC50 of 11000 nM. Molecule `C[C@]12CCC3C(C[C@H](O)C4=CCCC[C@@]43CO)C1CCC2=O` (stereo partly drawn) [(2S,8S,15S)-8-hydroxy-2-(hydroxymethyl)-15-methyltetracyclo[8.7.0.0^{2,7}.0^{11,15}]heptadec-6-en-14-one] had an IC50 of 1400 nM and an inhibitory constant (Ki) of 250 nM. The matching figures for `C[C@]12CCC3C(CCC4=CCCC[C@@]43CO)C1CCC2=O` (stereo partly drawn) [(2S,15S)-2-(hydroxymethyl)-15-methyltetracyclo[8.7.0.0^{2,7}.0^{11,15}]heptadec-6-en-14-one]: 49 nM and 5.8 nM. The matching figures for `C[C@]12CCC3C(CC=C4CCCC[C@@]43CO)C1CCC2=O` (stereo partly drawn) [(2S,15S)-2-(hydroxymethyl)-15-methyltetracyclo[8.7.0.0^{2,7}.0^{11,15}]heptadec-7-en-14-one]: 6900 nM and 1000 nM.

One may read the IC50 as the point on the concentration scale where inhibition reaches its midpoint. Broadly, the Ki is a measure of affinity in units of concentration, obtained from inhibition or displacement. A high value points to weaker binding.
